In this experiment the target is T1, human PAR4 (Homo sapiens, UniProt Q96RI0).
T1 construct: expressed in transfected cells; host or cells: HEK293 PAR4 Clone 1.2A (BMS Arctic ID 383940)
T1 sequence (Q96RI0 18-385): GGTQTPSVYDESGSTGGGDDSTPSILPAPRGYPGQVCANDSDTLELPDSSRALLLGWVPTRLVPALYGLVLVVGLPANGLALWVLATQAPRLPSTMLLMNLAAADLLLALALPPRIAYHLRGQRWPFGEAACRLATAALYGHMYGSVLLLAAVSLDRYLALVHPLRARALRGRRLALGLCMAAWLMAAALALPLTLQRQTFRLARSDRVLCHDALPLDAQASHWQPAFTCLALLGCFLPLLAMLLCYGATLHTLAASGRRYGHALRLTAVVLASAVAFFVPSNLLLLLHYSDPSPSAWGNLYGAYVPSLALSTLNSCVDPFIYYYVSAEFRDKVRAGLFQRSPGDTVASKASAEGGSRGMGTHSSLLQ
Description: PAR4 FLIPR assay: antagonism of agonist-peptide-induced calcium mobilization in PAR4-expressing HEK293 cells. It counts as cell-based. As to conditions: H-Ala-Phe(4-F)-[…]NH2-induced intracellular calcium mobilization, 11-point curves. (In general: A change in cytosolic calcium serves as a functional read-out for many receptors and channels.)

As a reminder, the IC50 is the concentration that inhibits the measured activity by half.

Take `COc1cc(C(O)C(C)(C)C)c2nc(-c3cc(Cl)cc4nc(OC)cnc34)sc2c1` (stereo not shown) [Example 636, 1-(2-(7-chloro-2-methoxyquinoxalin-5-yl)-6-methoxybenzo[d]thiazol-4-yl)-2,2-dimethylpropan-1-ol]: the IC50 was determined as 3 nM.
Next, `COc1cc(C(O)C(C)(C)C)c2nc(-c3cc(C)cc4nc(OC)cnc34)sc2c1` (stereo not shown) [Example 637, 1-(6-methoxy-2-(2-methoxy-7-methylquinoxalin-5-yl)benzo[d]thiazol-4-yl)-2,2-dimethylpropan-1-ol]: 2.1 nM.
As for `COc1cnc2c(-c3nc4c(C(O)C(C)(C)C)cc(OCCOC(=O)Nc5cncc(C#N)c5)cc4s3)cc(C)cc2n1` (stereo not shown) [Example 638, 2-((4-(1-hydroxy-2,2-dimethylpropyl)-2-(2-methoxy-7-methylquinoxalin-5-yl)benzo[d]thiazol-6-yl)oxy)ethyl (5-cyanopyridin-3-yl)carbamate], the IC50 was found to be 2.7 nM.
For the molecule `COc1cc(C(O)C(C)(C)C)c2nc(-c3cc(C#N)cc4nc(OC)cnc34)sc2c1` (stereo not shown) [Example 639, 8-(4-(1-hydroxy-2,2-dimethylpropyl)-6-methoxybenzo[d]thiazol-2-yl)-3-methoxyquinoxaline-6-carbonitrile], the IC50 is 1.4 nM.
On to `CCOc1cc(C(O)C(C)(C)C)c2nc(-c3cc(C)cc4nc(OC)cnc34)sc2c1` (stereo not shown) [Example 640, 1-(6-ethoxy-2-(2-methoxy-7-methylquinoxalin-5-yl)benzo[d]thiazol-4-yl)-2,2-dimethylpropan-1-ol], for which the IC50 was 8 nM.
Next, `COc1cc(CCO)c2nc(-c3cc(C)cc4nc(OC)cnc34)sc2c1` [Example 641, 2-(6-methoxy-2-(2-methoxy-7-methylquinoxalin-5-yl)benzo[d]thiazol-4-yl)ethanol]: 250 nM; `COc1cc(C(O)c2cccc(C(F)(F)F)c2)c2nc(-c3cc(C)cc4nc(OC)cnc34)sc2c1` (stereo not shown) [Example 642, (6-methoxy-2-(2-methoxy-7-methylquinoxalin-5-yl)benzo[d]thiazol-4-yl)(3-(trifluoromethyl)phenyl)methanol]: 4.6 nM; `COc1cc(C(O)c2ccccc2C(C)C)c2nc(-c3cc(C)cc4nc(OC)cnc34)sc2c1` (stereo not shown) [Example 643, (2-isopropylphenyl)(6-methoxy-2-(2-methoxy-7-methylquinoxalin-5-yl)benzo[d]thiazol-4-yl)methanol]: 5.3 nM.
In the case of `CCOC(=O)C1(C(O)c2cc(OC)cc3sc(-c4cc(C)cc5nc(OC)cnc45)nc23)CCC1` (stereo not shown) [Example 644, Ethyl 1-(hydroxy(6-methoxy-2-(2-methoxy-7-methylquinoxalin-5-yl)benzo[d]thiazol-4-yl)methyl)cyclobutanecarboxylate], the IC50 came out at 21 nM.
The value for `COc1cnc2c(-c3nc4cc(F)c(O[C@@H](C)[C@@H](C)OC(=O)Nc5cnc(C)nc5)cc4s3)cc(Cl)cc2c1` [Example 645, (2R,3S)-3-((2-(6-chloro-3-methoxyquinolin-8-yl)-5-fluorobenzo[d]thiazol-6-yl)oxy)butan-2-yl (2-methylpyrimidin-5-yl)carbamate] was 4.9 nM.
The value for `COc1cc(C(O)C2(CO)CCC2)c2nc(-c3cc(C)cc4nc(OC)cnc34)sc2c1` (stereo not shown) [Example 646, (1-(hydroxymethyl)cyclobutyl)(6-methoxy-2-(2-methoxy-7-methylquinoxalin-5-yl)benzo[d]thiazol-4-yl)methanol] was 3.8 nM.
For the molecule `CCc1cnc2c(-c3nc4cc(F)c(O[C@@H](C)[C@@H](C)OC(=O)Nc5cnc(C)nc5)cc4s3)cc(Cl)cc2c1` [Example 647, (2R,3S)-3-((2-(6-chloro-3-ethylquinolin-8-yl)-5-fluorobenzo[d]thiazol-6-yl)oxy)butan-2-yl(2-methylpyrimidin-5-yl)carbamate], the IC50 turned out to be 19 nM.
The value for `COc1cnc2c(-c3nc4cc(F)c(O[C@@H](C)[C@@H](C)OC(=O)Nc5cnc(C)nc5)cc4s3)cc(C)cc2c1` [Example 648, (2R,3S)-3-((5-fluoro-2-(3-methoxy-6-methylquinolin-8-yl)benzo[d]thiazol-6-yl)oxy)butan-2-yl (2-methylpyrimidin-5-yl)carbamate] was 3 nM; that for `CCOc1cnc2c(-c3nc4cc(F)c(O[C@@H](C)[C@@H](C)OC(=O)Nc5cnc(C)nc5)cc4s3)cc(Cl)cc2c1` [Example 649, (2R,3S)-3-((2-(6-chloro-3-ethoxyquinolin-8-yl)-5-fluorobenzo[d]thiazol-6-yl)oxy)butan-2-yl (2-methylpyrimidin-5-yl)carbamate] was 7.4 nM; that for `Cc1ncc(NC(=O)O[C@H](C)[C@H](C)Oc2cc3sc(-c4cc(Cl)cc5cc(OC(F)F)cnc45)nc3cc2F)cn1` [Example 650, (2R,3S)-3-((2-(6-chloro-3-(difluoromethoxy)quinolin-8-yl)-5-fluorobenzo[d]thiazol-6-yl)oxy)butan-2-yl (2-methylpyrimidin-5-yl)carbamate] was 5.6 nM.
Next, `Cc1ncc(NC(=O)O[C@H](C)[C@H](C)Oc2cc3sc(-c4cc(Cl)cc5cc(OCC(F)F)cnc45)nc3cc2F)cn1` [Example 651, (2R,3S)-3-((2-(6-chloro-3-(2,2-difluoroethoxy)quinolin-8-yl)-5-fluorobenzo[d]thiazol-6-yl)oxy)butan-2-yl (2-methylpyrimidin-5-yl)carbamate]: 4.3 nM; `CNc1cnc2c(-c3nc4cc(F)c(O[C@@H](C)[C@@H](C)OC(=O)Nc5cnc(C)nc5)cc4s3)cc(Cl)cc2c1` [Example 652, (2R,3S)-3-((2-(6-chloro-3-(methylamino)quinolin-8-yl)-5-fluorobenzo[d]thiazol-6-yl)oxy)butan-2-yl (2-methylpyrimidin-5-yl)carbamate]: 11 nM.
With `COc1cnc2c(-c3nc4cc(F)c(O[C@@H](C)[C@@H](C)OC(=O)Nc5cnc(C)nc5)cc4s3)cc(C(F)F)cc2c1` [Example 653, (2R,3S)-3-((2-(6-(difluoromethyl)-3-methoxyquinolin-8-yl)-5-fluorobenzo[d]thiazol-6-yl)oxy)butan-2-yl (2-methylpyrimidin-5-yl)carbamate], the IC50 is 0.83 nM.
`COc1cnc2c(-c3nc4cc(F)c(O[C@@H](C)[C@@H](C)OC(=O)Nc5cnc(C)nc5)cc4s3)cc(CF)cc2c1` [Example 654, (2R,3S)-3-((5-fluoro-2-(6-(fluoromethyl)-3-methoxyquinolin-8-yl)benzo[d]thiazol-6-yl)oxy)butan-2-yl (2-methylpyrimidin-5-yl)carbamate]: the IC50 stood at 1 nM.
Regarding `COc1cnc2c(-c3nc4cc(F)c(O[C@@H](C)[C@@H](C)OC(=O)Nc5cnc(C)nc5)cc4s3)cc(C#N)cc2c1` [Example 655, (2R,3S)-3-((2-(6-cyano-3-methoxyquinolin-8-yl)-5-fluorobenzo[d]thiazol-6-yl)oxy)butan-2-yl (2-methylpyrimidin-5-yl)carbamate], the IC50 was found to be 1.1 nM.
Next, `COc1cnc2c(-c3nc4c(C(O)C5(C(F)(F)F)CCC5)cc(OC)cc4s3)cc(Cl)cc2c1` (stereo not shown) [Example 656, (2-(6-chloro-3-methoxyquinolin-8-yl)-6-methoxybenzo[d]thiazol-4-yl)(1-(trifluoromethyl)cyclobutyl)methanol]: 2.4 nM; `COc1cnc2c(-c3nc4cc(F)c(O[C@@H](C)[C@@H](C)OC(=O)Nc5cnc(C)nc5)cc4s3)cc(OC)cc2c1` [Example 657, (2R,3S)-3-((2-(3,6-dimethoxyquinolin-8-yl)-5-fluorobenzo[d]thiazol-6-yl)oxy)butan-2-yl (2-methylpyrimidin-5-yl)carbamate]: 1.1 nM; `COc1cnc2c(-c3nc4c(C(O)C(C)(C)C)cc(OCCOC(=O)Nc5ccncc5)cc4s3)cc(C)cc2n1` (stereo not shown) [Example 658, 2-((4-(1-hydroxy-2,2-dimethylpropyl)-2-(2-methoxy-7-methylquinoxalin-5-yl)benzo[d]thiazol-6-yl)oxy)ethyl pyridin-4-ylcarbamate]: 3 nM.
Regarding `Cc1cc(-c2nc3cc(F)c(O[C@@H](C)[C@@H](C)OC(=O)Nc4cnc(C)nc4)cc3s2)c2ncc(OC(F)F)cc2c1` [Example 659, (2R,3S)-3((2-(3-(difluoromethoxy)-6-methylquinolin-8-yl)-5-fluorobenzo[d]thiazol-6-yl)oxy)butan-2-yl (2-methylpyrimidin-5-yl)carbamate], the IC50 was 2.1 nM.
Consider `CCOc1cnc2c(-c3nc4cc(F)c(O[C@@H](C)[C@@H](C)OC(=O)Nc5cnc(C)nc5)cc4s3)cc(C)cc2c1` [Example 660, (2R,3S)-3-((2-(3-ethoxy-6-methylquinolin-8-yl)-5-fluorobenzo[d]thiazol-6-yl)oxy)butan-2-yl (2-methylpyrimidin-5-yl)carbamate], for which the IC50 is 2 nM.
Next, `CCOc1cnc2c(-c3cc4ccccc4o3)cc(C)cc2n1` [Example 661, 5-(benzofuran-2-yl)-2-ethoxy-7-methylquinoxaline]: 55 nM; `COc1ccc(OC(=O)NCCOc2cc(C)c3nc(-c4cc(C)cc5nc(OC)cnc45)sc3n2)cc1` [Example 662, 4-methoxyphenyl (2-((2-(2-methoxy-7-methylquinoxalin-5-yl)-7-methylthiazolo[5,4-b]pyridin-5-yl)oxy)ethyl)carbamate]: 77 nM.
Consider `COc1cc(C(O)C2CCOCC2)c2nc(-c3cc(C)cc4nc(OC)cnc34)sc2c1` (stereo not shown) [Example 663, (6-methoxy-2-(2-methoxy-7-methylquinoxalin-5-yl)benzo[d]thiazol-4-yl)(tetrahydro-2H-pyran-4-yl)methanol], for which the half-maximal inhibitory concentration (IC50) amounted to 7 nM.

The values above are taken from patent publication US12060347B2 (BRISTOL-MYERS SQUIBB COMPANY, priority 2016, dated 2024).
